According to publication PMC9486541, “Design, synthesis and cytotoxic evaluation of novel betulonic acid-diazine derivatives as potential antitumor agents” (Frontiers in Chemistry, 2022):

Legend:
Bel-7402 = test: MTT assay, Bel-7402 cells; format: cell-based, human; conditions: Homo sapiens, Bel-7402, 72 h incubation, read-out: Half maximal inhibitory concentration (IC50) values, Bel-7402
From the text: (§1) The human hepatocellular carcinoma cell line (HepG2), human hepatocellular carcinoma cell line (Bel-7402), human cervical cancer cell line (Hela), human breast adenocarcinoma cell line (MCF-7) and Madin-Darby canine kidney cell line (MDCK) were obtained from the Chinese Academy of Medical Sciences and Peking Union Medical College. Cultures were maintained as monolayer in RPMI-1640/DMEM supplemented with 10% (v/v) fetal bovine serum (FBS) and 1% (v/v) penicillin/streptomycin (Thermo Technologies, New York, NY, United States) under a humidified atmosphere containing 5% CO2 at 37°C. The BoA derivatives and positive control drugs (BoA and DDP) under study were dissolved in DMSO (Sigma, St. Louis, MO, United States) and added at required concentrations to the cell culture. Cells incubated without the preparations served as the control.
(§2) The antitumor activity was assessed by MTT assay, as previously reported ([Fang et al., 2018]). Each tested compound and positive control drugs were dissolved in DMSO and diluted with the medium to the test concentrations, and the final concentration of DMSO in the culture medium was controlled at less than 0.5% (v/v). Briefly, cells were cultured at 37°C and dispersed in replicates in 96-well plates with HepG2, Bel-7402, HeLa, MCF-7 and MDCK for 24 h. Fresh medium along with compounds (BoAA-BoAE, BoA2A-BoA2G, BoA3A-BoA3G, BoA4A-BoA4G) at different concentrations was then added to individual wells and incubated for 72 h, with BoA and DDP as the positive control. Experiments on FXR expression were separated into three groups: Control (PBS), BoA2C (8 μM), and BoA2C (8 μM) + DY268 (10 μM) ([Giordano et al., 2016]), with three repeating wells in each. In separate wells, BoA2C and DY268 were introduced and cultured for 72 h. After 72 h, the cell was incubated with MTT solution (0.5 mg/ml) for an additional 4 h at 37°C. The produced formazan crystals were solubilized with DMSO, and the optical density of solution was measured at 570 nm using a plate reader (BIORAD 550 spectrophotometer, Bio-rad Life Science Development Ltd., Beijing, China). Wells without drugs were used to be blanks. The IC50 values were defined as the concentration of compounds that produced a 50% proliferation inhibition of surviving cells and calculated using the Graph Pad Prism 5. The inhibitory rate was calculated in the following Equation 1, where OD is the optical density: % inhibition=[1−(OD Sample group−OD Blank group)/(OD Control group−OD Blank group)]×100% (1)

HepG2 = test: MTT assay, HepG2 cells; format: cell-based, human; conditions: Homo sapiens, HepG2, 72 h incubation, read-out: Half maximal inhibitory concentration (IC50) values, HepG2
From the text: as §1, §2

Hela = test: MTT assay, Hela cells; format: cell-based, human; conditions: Homo sapiens, HeLa, 72 h incubation, read-out: Half maximal inhibitory concentration (IC50) values, Hela
From the text: as §1, §2

MCF-7 = test: MTT assay, MCF-7 cells; format: cell-based, human; conditions: Homo sapiens, MCF7, 72 h incubation, read-out: Half maximal inhibitory concentration (IC50) values, MCF-7
From the text: as §1, §2

MDCK = test: MTT assay, MDCK normal cell line; format: cell-based, canine; conditions: Canis lupus familiaris, MDCK, 72 h incubation, normal cell line, read-out: Half maximal inhibitory concentration (IC50) values, MDCK
From the text: as §1, §2

[1] = tested on: MCF-7 breast cancer cells; test: MTT cell proliferation with FXR antagonist DY268; format: cell-based, human; conditions: MCF-7, BoA2C (8 μM) + DY268 (10 μM), 24, 48 and 72 h
Experimental: as §2, with “In separate wells, BoA2C and DY268 were introduced and cultured for 72 h.” left out, “The inhibitory rate was calculated in the following Equation 1, where OD is the optical density: % inhibition=[1−(OD Sample group−OD Blank group)/(OD Control group−OD Blank group)]×100% (1)” left out

SMILES	melting point [°C]	IC50 (Bel-7402) [µM]	IC50 (HepG2) [µM]	IC50 (Hela) [µM]	IC50 (MCF-7) [µM]	IC50 (MDCK) [µM]	effect of DY268 on BoA2C antiproliferative activity [1]
C=C(C)[C@@H]1CC[C@]2(C(=O)OCCOC(=O)c3ccnnc3)CC[C@]3(C)[C@H](CC[C@@H]4[C@@]5(C)CCC(=O)C(C)(C)[C@@H]5CC[C@]43C)[C@@H]12 [BoA2G]	130 to 132	24.8 ± 2.43	> 30	5.81 ± 0.24	> 30	13 ± 0.46	–
C=C(C)[C@@H]1CC[C@]2(C(=O)OCCCOC(=O)c3cnccn3)CC[C@]3(C)[C@H](CC[C@@H]4[C@@]5(C)CCC(=O)C(C)(C)[C@@H]5CC[C@]43C)[C@@H]12 [BoA3A, (Pyrazin-2-acyloxy)-propyl-3-oxolup-20(29)-en-28-oate]	74 to 76	6.09 ± 0.12	4.82 ± 0.3	20.4 ± 0.56	6.85 ± 1.82	> 30	–
C=C(C)[C@@H]1CC[C@]2(C(=O)OCCCOC(=O)c3nccnc3C)CC[C@]3(C)[C@H](CC[C@@H]4[C@@]5(C)CCC(=O)C(C)(C)[C@@H]5CC[C@]43C)[C@@H]12 [BoA3B, (3-Methylpyrazin-2-acyloxy)-propyl-3-oxolup-20(29)-en-28-oate]	54 to 55	14.2 ± 2.1	13.2 ± 1.2	15.7 ± 2.15	27.9 ± 1.06	> 30	–
C=C(C)[C@@H]1CC[C@]2(C(=O)OCCCOC(=O)c3cnc(C)cn3)CC[C@]3(C)[C@H](CC[C@@H]4[C@@]5(C)CCC(=O)C(C)(C)[C@@H]5CC[C@]43C)[C@@H]12 [BoA3C, (5-Methylpyrazin-2-acyloxy)-propyl-3-oxolup-20(29)-en-28-oate]	57 to 58	9.37 ± 1.31	> 30	30 ± 2.65	10 ± 0.19	> 30	–
C=C(C)[C@@H]1CC[C@]2(C(=O)OCCCOC(=O)c3cncc(C)n3)CC[C@]3(C)[C@H](CC[C@@H]4[C@@]5(C)CCC(=O)C(C)(C)[C@@H]5CC[C@]43C)[C@@H]12 [BoA3D, (6-Methylpyrazin-2-acyloxy)-propyl-3-oxolup-20(29)-en-28-oate]	59 to 60	6.42 ± 0.66	8.65 ± 0.6	9.5 ± 0.28	5.6 ± 0.25	17 ± 3.01	–
C=C(C)[C@@H]1CC[C@]2(C(=O)OCCCOC(=O)c3nc(C)c(C)nc3C)CC[C@]3(C)[C@H](CC[C@@H]4[C@@]5(C)CCC(=O)C(C)(C)[C@@H]5CC[C@]43C)[C@@H]12 [BoA3E, (3,5,6-Trimethylpyrazin-2-acyloxy)-propyl-3-oxolup-20(29)-en-28-oate]	57 to 59	11.2 ± 1.55	20.2 ± 0.53	10.1 ± 0.15	29.5 ± 0.89	> 30	–
C=C(C)[C@@H]1CC[C@]2(C(=O)OCCCOC(=O)c3ccncn3)CC[C@]3(C)[C@H](CC[C@@H]4[C@@]5(C)CCC(=O)C(C)(C)[C@@H]5CC[C@]43C)[C@@H]12 [BoA3F]	50 to 52	22.3 ± 5.85	> 30	21.1 ± 6.66	> 30	17.9 ± 0.82	–
C=C(C)[C@@H]1CC[C@]2(C(=O)OCCCOC(=O)c3ccnnc3)CC[C@]3(C)[C@H](CC[C@@H]4[C@@]5(C)CCC(=O)C(C)(C)[C@@H]5CC[C@]43C)[C@@H]12 [BoA3G]	68 to 71	25.2 ± 2.44	> 30	4 ± 0.32	13.4 ± 0.51	18.5 ± 0.42	–
C=C(C)[C@@H]1CC[C@]2(C(=O)OCCCCOC(=O)c3cnccn3)CC[C@]3(C)[C@H](CC[C@@H]4[C@@]5(C)CCC(=O)C(C)(C)[C@@H]5CC[C@]43C)[C@@H]12 [BoA4A, (Pyrazin-2-acyloxy)-butyl-3-oxolup-20(29)-en-28-oate]	69 to 71	9.39 ± 0.73	12.9 ± 4	13.82 ± 0.12	9.13 ± 0.4	25.3 ± 4.14	–
C=C(C)[C@@H]1CC[C@]2(C(=O)OCCCCOC(=O)c3nccnc3C)CC[C@]3(C)[C@H](CC[C@@H]4[C@@]5(C)CCC(=O)C(C)(C)[C@@H]5CC[C@]43C)[C@@H]12 [BoA4B, (3-Methylpyrazin-2-acyloxy)-butyl-3-oxolup-20(29)-en-28-oate]	54 to 55	3.92 ± 1.1	21.8 ± 2.46	11.5 ± 0.93	> 30	> 30	–
C=C(C)[C@@H]1CC[C@]2(C(=O)OCCCCOC(=O)c3nc(C)c(C)nc3C)CC[C@]3(C)[C@H](CC[C@@H]4[C@@]5(C)CCC(=O)C(C)(C)[C@@H]5CC[C@]43C)[C@@H]12 [BoA4E, (3,5,6-Trimethylpyrazin-2-acyloxy)-butyl-3-oxolup-20(29)-en-28-oate]	124 to 126	> 30	> 30	> 30	> 30	> 30	–
C=C(C)[C@@H]1CC[C@]2(C(=O)OCc3nccnc3C)CC[C@]3(C)[C@H](CC[C@@H]4[C@@]5(C)CCC(=O)C(C)(C)[C@@H]5CC[C@]43C)[C@@H]12 [BoAB, (3-Methylpyrazin-2-yl)-methyl-3-oxolup-20(29)-en-28-oate]	80 to 82	7.73 ± 1.92	11.1 ± 0.27	11.8 ± 0.58	10 ± 0.26	> 30	–
C=C(C)[C@@H]1CC[C@]2(C(=O)OCc3cnc(C)cn3)CC[C@]3(C)[C@H](CC[C@@H]4[C@@]5(C)CCC(=O)C(C)(C)[C@@H]5CC[C@]43C)[C@@H]12 [BoAC, (5-Methylpyrazin-2-yl)-methyl-3-oxolup-20(29)-en-28-oate]	125 to 127	8.24 ± 2.43	8.95 ± 4.76	11.9 ± 1.05	8.94 ± 1.3	> 30	–
C=C(C)[C@@H]1CC[C@]2(C(=O)OCc3cncc(C)n3)CC[C@]3(C)[C@H](CC[C@@H]4[C@@]5(C)CCC(=O)C(C)(C)[C@@H]5CC[C@]43C)[C@@H]12 [BoAD, (6-Methylpyrazin-2-yl)-methyl-3-oxolup-20(29)-en-28-oate]	119 to 121	7.51 ± 1.4	5.17 ± 1.33	10.7 ± 0.32	8.24 ± 0.87	> 30	–
COc1cccc(Cn2cc(C(=O)Nc3ccc(C)c(S(=O)(=O)N4CCOCC4)c3)c(-c3ccc(C)cc3)n2)c1 [DY268]	–	–	–	–	–	–	reversed BoA2C inhibitory impact on the growth of MCF-7 breast cancer cells
